Results: patent US20240059703A1 (AMGEN INC., priority 2021, published 2024)

Tests used:
[1] = tested on: A549 (human lung carcinoma) cells; assay: Cell Viability Assay (CellTiter-Glo), A549; assay type: cell-based; conditions: Homo sapiens, A549, 72 h
Method in brief: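 After a 72 h exposure to serial compound dilutions at 37° C, luminescent ATP content was measured with CellTiter-Glo. The cells were A549 or MIA PaCa-2, seeded at 1.67E+04 cells/mL in RPMI 1640 with 10% serum. Signals were normalized to DMSO controls and IC50 fitted with a 4-parameter logistic model.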

[2] = molecular target: KRAS G12C (Homo sapiens (Human), UniProt P01116, C118A/G12C); assay: 2 h coupled exchange assay; assay type: biochemical; conditions: Avg 2 h Coupled exchange IC50, 2 h compound pre-incubation, SOS-mediated nucleotide exchange
Description: The term “2 h coupled exchange assay” or “20 h coupled exchange assay” as used herein refers to the assay described in the Section entitled “BIOLOGICAL EVALUATION.”

[3] = tested on: MIA PaCa-2 (human pancreatic carcinoma) cells; assay: Cell Viability Assay (CellTiter-Glo), MIA PaCa-2; assay type: cell-based; conditions: Homo sapiens, MIA PaCa-2, 72 h
Description: Serially-diluted compound or DMSO was added to the cells, and plates were incubated at 37° C., 5% CO2 for 72 h. Cell viability was measured using a CellTiter-Glo® Luminescent Cell Viability Assay kit (Promega) according to the manufacturer's protocol. The luminescence signal of treated samples was normalized to DMSO control, and data were analyzed using a 4-parameter logistic model to calculate IC50 values.

KRAS G12C, sequence (P01116 other isoform, or with tags, fused parts or gaps G12C/C118A): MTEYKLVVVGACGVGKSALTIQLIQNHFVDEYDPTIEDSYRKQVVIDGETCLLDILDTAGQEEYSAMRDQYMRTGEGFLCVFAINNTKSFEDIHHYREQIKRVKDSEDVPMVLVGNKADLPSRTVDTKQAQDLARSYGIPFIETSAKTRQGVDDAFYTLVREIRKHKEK

IC50 [1] [nM]	IC50 [2] [nM]	IC50 [3] [nM]	SMILES
> 5000	760	> 5000	C=CC(=O)N1CC2(CCN(c3nc4c(c(-c5cccc6c(F)c(O)ccc56)c3C)COC(C)(C)C4)C2)C1 [Example 12-45, 1-(6-(4-(5-fluoro-6-hydroxy-1-naphthalenyl)-3,7,7-trimethyl-7,8-dihydro-5H-pyrano[4,3-b]pyridin-2-yl)-2,6-diazaspiro[3.4]octan-2-yl)-2-propen-1-one]
3700	61	366	Cc1ccc2[nH]ncc2c1-c1c(C#N)c(N2CCC3(CN(C(=O)/C=C/CN(C)C)C3)C2)nc2c1CCC(C)(C)C2 [Example 13-2, 2-(2-((2E)-4-(dimethylamino)-2-butenoyl)-2,6-diazaspiro[3.4]octan-6-yl)-7,7-dimethyl-4-(5-methyl-1H-indazol-4-yl)-5,6,7,8-tetrahydro-3-quinolinecarbonitrile]
1250	166	625	C=C(Cl)C(=O)N1CC2(CCN(c3nc4c(c(-c5c(C)ccc6[nH]ncc56)c3C#N)CCC(C)(C)C4)C2)C1 [Example 13-3, 2-(2-(2-chloro-2-propenoyl)-2,6-diazaspiro[3.4]octan-6-yl)-7,7-dimethyl-4-(5-methyl-1H-indazol-4-yl)-5,6,7,8-tetrahydro-3-quinolinecarbonitrile]
> 5000	357	1620	COC/C=C/C(=O)N1CC2(CCN(c3nc4c(c(-c5c(C)ccc6[nH]ncc56)c3C#N)CCC(C)(C)C4)C2)C1 [Example 13-4, 2-(2-((2E)-4-methoxy-2-butenoyl)-2,6-diazaspiro[3.4]octan-6-yl)-7,7-dimethyl-4-(5-methyl-1H-indazol-4-yl)-5,6,7,8-tetrahydro-3-quinolinecarbonitrile]
> 5000	973	> 5000	C=CC(=O)N1CC2(CCN(c3nc4c(c(-c5ccccc5Cl)c3C#N)COC(C)(C)C4)C2)C1 [Example 13-5, 4-(2-chlorophenyl)-7,7-dimethyl-2-(2-(2-propenoyl)-2,6-diazaspiro[3.4]octan-6-yl)-7,8-dihydro-5H-pyrano[4,3-b]pyridine-3-carbonitrile]
3370	44	218	Cc1ccc2[nH]ncc2c1-c1c(C#N)c(N2CCC3(CN(C(=O)/C=C/C(F)F)C3)C2)nc2c1CCC(C)(C)C2 [Example 13-8, 2-(2-((2E)-4,4-difluoro-2-butenoyl)-2,6-diazaspiro[3.4]octan-6-yl)-7,7-dimethyl-4-(5-methyl-1H-indazol-4-yl)-5,6,7,8-tetrahydro-3-quinolinecarbonitrile]
4240	67	537	C=CC(=O)N1CC2(CCN(c3nc4c(c(-c5c(C)ccc6[nH]ncc56)c3C#N)CC3(CC4)CC3)C2)C1 [Example 13-11, 4′-(5-methyl-1H-indazol-4-yl)-2′-(2-(2-propenoyl)-2,6-diazaspiro[3.4]octan-6-yl)-7′,8′-dihydro-5′H-spiro[cyclopropane-1,6′-quinoline]-3′-carbonitrile]
> 5000	29	157	C=CC(=O)N1CC2(CCN(c3nc4c(c(-c5c(C)ccc6[nH]ncc56)c3C#N)CC(C)(C)C4)C2)C1 [Example 13-12, 6,6-dimethyl-4-(5-methyl-1H-indazol-4-yl)-2-(2-(2-propenoyl)-2,6-diazaspiro[3.4]octan-6-yl)-6,7-dihydro-5H-cyclopenta[b]pyridine-3-carbonitrile]
> 5000	34	517	C=CC(=O)N1CC2(CCN(c3nc4c(c(-c5c(C)ccc6[nH]ncc56)c3C#N)CC3(CC3)C4)C2)C1 [Example 13-14, 4-(5-methyl-1H-indazol-4-yl)-2-(2-(2-propenoyl)-2,6-diazaspiro[3.4]octan-6-yl)-5,7-dihydrospiro[cyclopenta[b]pyridine-6,1′-cyclopropane]-3-carbonitrile]
> 5000	163	1170	C=CC(=O)N1CC2(CCN(c3nc4c(c(-c5c(C)ccc6[nH]ncc56)c3C#N)COCCC4(F)F)C2)C1 [Example 13-15, 9,9-difluoro-4-(5-methyl-1H-indazol-4-yl)-2-(2-(2-propenoyl)-2,6-diazaspiro[3.4]octan-6-yl)-5,7,8,9-tetrahydrooxepino[4,3-b]pyridine-3-carbonitrile]
> 5000	82	393	C=CC(=O)N1CC2(CCN(c3nc4c(c(-c5c(C)ccc6cnn(C)c56)c3C#N)CC(C)(C)C4)C2)C1 [Example 13-16, 4-(1,6-dimethyl-1H-indazol-7-yl)-6,6-dimethyl-2-(2-(2-propenoyl)-2,6-diazaspiro[3.4]octan-6-yl)-6,7-dihydro-5H-cyclopenta[b]pyridine-3-carbonitrile]
> 5000	64	338	C=CC(=O)N1CC2(CCN(c3nc4c(c(-c5ccccc5Cl)c3C#N)CCC(c3ccnn3C)C4)C2)C1 [Example 13-19, (7R)-4-(2-chlorophenyl)-7-(1-methyl-1H-pyrazol-5-yl)-2-(2-(2-propenoyl)-2,6-diazaspiro[3.4]octan-6-yl)-5,6,7,8-tetrahydro-3-quinolinecarbonitrile|(7S)-4-(2-chlorophenyl)-7-(1-methyl-1H-pyrazol-5-yl)-2-(2-(2-propenoyl)-2,6-diazaspiro[3.4]octan-6-yl)-5,6,7,8-tetrahydro-3-quinolinecarbonitrile]
3000	12	224	C=CC(=O)N1CC2(CCN(c3nc4c(c(-c5ccccc5Cl)c3C#N)CC[C@@H](c3ccnn3C)C4)C2)C1 [Example 13-20, (7R)-4-(2-chlorophenyl)-7-(1-methyl-1H-pyrazol-5-yl)-2-(2-(2-propenoyl)-2,6-diazaspiro[3.4]octan-6-yl)-5,6,7,8-tetrahydro-3-quinolinecarbonitrile]
> 5000	62	615	C=CC(=O)N1CC2(CCN(c3nc4c(c(-c5ccccc5Cl)c3C#N)CC[C@H](c3ccnn3C)C4)C2)C1 [Example 13-21, (7S)-4-(2-chlorophenyl)-7-(1-methyl-1H-pyrazol-5-yl)-2-(2-(2-propenoyl)-2,6-diazaspiro[3.4]octan-6-yl)-5,6,7,8-tetrahydro-3-quinolinecarbonitrile]
> 5000	35	280	C=CC(=O)N1CC2(CCN(c3nc4c(c(-c5ccccc5F)c3C#N)CCC(c3ccnn3C)C4)C2)C1 [Example 13-26, (7R)-4-(2-fluorophenyl)-7-(1-methyl-1H-pyrazol-5-yl)-2-(2-(2-propenoyl)-2,6-diazaspiro[3.4]octan-6-yl)-5,6,7,8-tetrahydro-3-quinolinecarbonitrile|(7S)-4-(2-fluorophenyl)-7-(1-methyl-1H-pyrazol-5-yl)-2-(2-(2-propenoyl)-2,6-diazaspiro[3.4]octan-6-yl)-5,6,7,8-tetrahydro-3-quinolinecarbonitrile]
> 5000	33	190	C=CC(=O)N1CC2(CCN(c3nc4c(c(-c5cc(O)cc6ccccc56)c3C#N)COC(C)(C)C4)C2)C1 [Example 13-41, 4-(3-hydroxy-1-naphthalenyl)-7,7-dimethyl-2-(2-(2-propenoyl)-2,6-diazaspiro[3.4]octan-6-yl)-7,8-dihydro-5H-pyrano[4,3-b]pyridine-3-carbonitrile]
> 5000	589	1440	C=CC(=O)N1CC2(CCN(c3nc4c(c(-c5c(C)ccc6[nH]ncc56)c3C(=O)OC)CCC(C)(C)C4)C2)C1 [Example 13-44, methyl 7,7-dimethyl-4-(5-methyl-1H-indazol-4-yl)-2-(2-(2-propenoyl)-2,6-diazaspiro[3.4]octan-6-yl)-5,6,7,8-tetrahydro-3-quinolinecarboxylate]
> 5000	148	421	C=CC(=O)N1CC2(CCN(c3nc4c(c(-c5c(C)ccc6[nH]ncc56)c3C(F)F)COC(C)(C)C4)C2)C1 [Example 13-45, 1-(6-(3-(difluoromethyl)-7,7-dimethyl-4-(5-methyl-1H-indazol-4-yl)-7,8-dihydro-5H-pyrano[4,3-b]pyridin-2-yl)-2,6-diazaspiro[3.4]octan-2-yl)-2-propen-1-one]
> 5000	123	442	C=CC(=O)N1CC2(CCN(c3nc4c(c(-c5c(C)ccc6cnn(C)c56)c3C#N)COC(C)(C)C4)C2)C1 [Example 13-49, 4-(1,6-dimethyl-1H-indazol-7-yl)-7,7-dimethyl-2-(2-(2-propenoyl)-2,6-diazaspiro[3.4]octan-6-yl)-7,8-dihydro-5H-pyrano[4,3-b]pyridine-3-carbonitrile]
> 5000	76	198	C=CC(=O)N1CC2(CCN(c3nc4c(c(-c5c(C)ccc6[nH]ncc56)c3C#N)COC3(CCOCC3)C4)C2)C1 [Example 13-50, 4′-(5-methyl-1H-indazol-4-yl)-2′-(2-(2-propenoyl)-2,6-diazaspiro[3.4]octan-6-yl)-2,3,5,5′,6,8′-hexahydrospiro[pyran-4,7′-pyrano[4,3-b]pyridine]-3′-carbonitrile]
